Measured values as given in patent publication US20240139147A1, “METHOD FOR IMPROVING BIOAVAILABILITY OF NAD+ DERIVATIVES” (HOBOOMLIFE BIO-TECHNOLOGY (SHENZHEN) CO., LTD., priority 2022, published 2024).

Assays:
Assay type in all cases: in vivo
Settings in all cases: SD rats, intragastric; for NAD+ level in blood: 100 mg/kg NMN and/or 10 mg/kg quercetin
NAD+ [1] = experiment: Increasing the level of NAD+ by controlled-release NMN microspheres 1-3, blood NAD+ by HPLC (Example 3)
Experimental: (§1) 28 SD rats weighing about 200 g were purchased, and an experiment was carried out after one week of adaptive feeding. The 28 rats were divided into 7 groups, 4 rats per group (half male and half female). The rats in group 1 were not treated, the rats in group 2 were administered intragastrically with 100 mg/kg of NMN, the rats in group 3 were administered intragastrically with 10 mg/kg of quercetin, the rats in group 4 were administered intragastrically with 100 mg/kg of NMN and 10 mg/kg of quercetin at the same time, the rats in group 5 were administered intragastrically with the controlled-release microspheres 1 containing 100 mg/kg of NMN and 10 mg/kg of quercetin, the rats in group 6 were administered intragastrically with the controlled-release NMN microspheres 2 containing 100 mg/kg of NMN and 10 mg/kg of quercetin, and the rats in group 7 were administered intragastrically with the controlled-release NMN microspheres 3 containing 100 mg/kg of NMN and 10 mg/kg of quercetin.
Blood was collected from the rat in each groups via the tail vein at time points of 2 h, 2.5 h, 3 h, 3.5 h, 4 h, 4.5 h, 5 h, 5.5 h, and 6 h, respectively, after intragastric administration of corresponding microspheres, and 0.1 mL of blood was collected each time by each rat. After the vein blood collected from the rat in each groups at each time point was treated, the NAD+ level in the blood sample was tested by high performance liquid chromatography (HPLC). The test results of 4 rats in each group were averaged. […] Different parameters are set in the preparation processes of the controlled-release NMN microsphere 1, the controlled-release NMN microsphere 2, and the controlled-release NMN microsphere 3, so the time intervals between release peaks of quercetin and release peaks of NMN in the microspheres are different. A time difference between a peak of the releasing of quercetin and a peak of the releasing of NMN in the controlled-release NMN microsphere 1 is 1 h-2 h, a time difference between a peak of the releasing of quercetin and a peak of the releasing of NMN in the controlled-release NMN microsphere 2 is 0.5 h-1.5 h, and a time difference between a peak of the releasing of quercetin and a peak of the releasing of NMN in the controlled-release NMN microsphere 3 is 0 h-1 h.

NAD+ [2] = experiment: Increasing the level of NAD+ by controlled-release NMN microspheres 2, 5, 6, blood NAD+ by HPLC (Example 9)
Experimental: as §1, with “the controlled-release NMN microspheres 2” for “the controlled-release microspheres 1”, “NMN microspheres 2 containing 100” for “controlled-release microspheres 1 containing 100”, “NMN microspheres 5 containing 100” for “NMN microspheres 2 containing 100”, “NMN microspheres 6 containing 100” for “NMN microspheres 3 containing 100”
Blood was collected from the rat in each groups via the tail vein at time points of 2 h, 2.5 h, 3 h, 3.5 h, 4 h, 4.5 h, 5 h, 5.5 h, and 6 h, respectively, after intragastric administration of corresponding microspheres, and 0.1 mL of blood was collected each time by each rat. After the vein blood collected from the rat in each groups at each time point was treated, the NAD+ level in the blood sample was tested by high performance liquid chromatography (HPLC). The test results of 4 rats in each group were averaged. […] There are time differences between a peak of the releasing of quercetin and a peak of the releasing of NMN in the controlled-release NMN microsphere 2, the controlled-release NMN microsphere 5, and the controlled-release NMN microsphere 6 that are prepared based on difference mass ratios of quercetin (the CD38 inhibitor) to NMN, and the time differences between a peak of the releasing of quercetin and a peak of the releasing of NMN in the three microspheres are consistent and are all about 0.5-1.5 h.

NAD+ [3] = experiment: Increasing the level of NAD+ by controlled-release NMN microspheres 2, 9, 10, blood NAD+ by HPLC (Example 15)
Experimental: as §1, with “10 mg/kg quercetin at” for “10 mg/kg of quercetin at”, “the controlled-release NMN microspheres 2” for “the controlled-release microspheres 1”, “NMN microspheres 2 containing 100” for “controlled-release microspheres 1 containing 100”, “NMN microspheres 9 containing 100” for “NMN microspheres 2 containing 100”, “NMN microspheres 10 containing 100” for “NMN microspheres 3 containing 100”
Blood was collected from each rat in the groups via the tail vein at time points of 2 h, 2.5 h, 3 h, 3.5 h, 4 h, 4.5 h, 5 h, 5.5 h, and 6 h, respectively, after intragastric administration of corresponding microspheres, and 0.1 mL of blood was collected each time by each rat. After the vein blood collected from each rat in the groups at each time point was treated, the NAD+ level in the blood sample was tested by high performance liquid chromatography (HPLC). The test results of 4 rats in each group were averaged. […] There are time differences between a peak of the releasing of quercetin and a peak of the releasing of NMN in the controlled-release NMN microsphere 2, the controlled-release NMN microsphere 9, and the controlled-release NMN microsphere 10 that are prepared based on different mass ratios of quercetin (the CD38 inhibitor) to the excipient and different mass ratios of NMN to the excipient, and the time differences between a peak of the releasing of quercetin and a peak of the releasing of NMN in the three microspheres are consistent and are all about 0.5-1.5 h.

Row | SMILES | level of NAD+ in the rat compared with the blank group (in words) (NAD+ [1]) | NAD+ level in blood (NAD+ [1]; 2 h) | NAD+ level in blood (NAD+ [1]; 2.5 h) | NAD+ level in blood (NAD+ [1]; 3 h) | NAD+ level in blood (NAD+ [1]; 3.5 h) | NAD+ level in blood (NAD+ [1]; 4 h) | NAD+ level in blood (NAD+ [1]; 4.5 h) | NAD+ level in blood (NAD+ [1]; 5 h) | NAD+ level in blood (NAD+ [1]; 5.5 h) | NAD+ level in blood (NAD+ [1]; 6 h) | level of NAD+ in the rat compared with the blank group (in words) (NAD+ [2]) | NAD+ level in blood (NAD+ [2]; 2 h) | NAD+ level in blood (NAD+ [2]; 2.5 h) | NAD+ level in blood (NAD+ [2]; 3 h) | NAD+ level in blood (NAD+ [2]; 3.5 h) | NAD+ level in blood (NAD+ [2]; 4 h) | NAD+ level in blood (NAD+ [2]; 4.5 h) | NAD+ level in blood (NAD+ [2]; 5 h) | NAD+ level in blood (NAD+ [2]; 5.5 h) | NAD+ level in blood (NAD+ [2]; 6 h) | further results
1 | NC(=O)c1ccc[n+]([C@@H]2O[C@H](COP(=O)([O-])O)[C@@H](O)[C@H]2O)c1 [NMN, nicotinamide mononucleotide] | can increase the level of NAD+ in the rat | 139 µM | 207 µM | 173 µM | 159 µM | 150 µM | 145 µM | 148 µM | 152 µM | 147 µM | can increase the level of NAD+ in the rat | 133 µM | 197 µM | 168 µM | 159 µM | 143 µM | 148 µM | 139 µM | 144 µM | 140 µM | level of NAD+ in the rat compared with the blank group (in words) (NAD+ [3]): can increase the level of NAD+ in the rat; NAD+ level in blood (NAD+ [3]; 2 h): 134 µM; NAD+ level in blood (NAD+ [3]; 2.5 h): 193 µM; NAD+ level in blood (NAD+ [3]; 3 h): 153 µM; NAD+ level in blood (NAD+ [3]; 3.5 h): 168 µM; NAD+ level in blood (NAD+ [3]; 4 h): 142 µM; NAD+ level in blood (NAD+ [3]; 4.5 h): 137 µM; NAD+ level in blood (NAD+ [3]; 5 h): 131 µM; NAD+ level in blood (NAD+ [3]; 5.5 h): 138 µM; NAD+ level in blood (NAD+ [3]; 6 h): 134 µM
2 | O=c1c(O)c(-c2ccc(O)c(O)c2)oc2cc(O)cc(O)c12 [Quercetin, quercetin] | can increase the level of NAD+ in the rat | 145 µM | 152 µM | 178 µM | 160 µM | 147 µM | 150 µM | 151 µM | 144 µM | 149 µM | can increase the level of NAD+ in the rat | 127 µM | 146 µM | 180 µM | 164 µM | 151 µM | 144 µM | 147 µM | 130 µM | 137 µM | level of NAD+ in the rat compared with the blank group (in words) (NAD+ [3]): can increase the level of NAD+ in the rat; NAD+ level in blood (NAD+ [3]; 2 h): 121 µM; NAD+ level in blood (NAD+ [3]; 2.5 h): 140 µM; NAD+ level in blood (NAD+ [3]; 3 h): 176 µM; NAD+ level in blood (NAD+ [3]; 3.5 h): 158 µM; NAD+ level in blood (NAD+ [3]; 4 h): 146 µM; NAD+ level in blood (NAD+ [3]; 4.5 h): 138 µM; NAD+ level in blood (NAD+ [3]; 5 h): 141 µM; NAD+ level in blood (NAD+ [3]; 5.5 h): 124 µM; NAD+ level in blood (NAD+ [3]; 6 h): 132 µM
